In ChEMBL document CHEMBL5465560, “Selectivity Literature for EUbOPEN Chemogenomic Library” (2024):
Blank lines part the entries; values can stand above or below the molecule they belong to.

Columns and labels:
[1] = biological target: T1, Mitogen-activated protein kinase 8 (Homo sapiens, UniProt P45983); assay: Selectivity interaction (LanthaScreen Eu Kinase Binding Assay) EUB0001632a MAPK8; details: at 10 µM
[2] = biological target: Glycogen synthase kinase-3 alpha (Homo sapiens, UniProt P49840); assay: Selectivity interaction (Kinase panel (Z-LYTE Assay)) EUB0001632a GSK3A; details: at 10 µM
Chain of Glycogen synthase kinase-3 alpha (P49840 2-483 limits assumed): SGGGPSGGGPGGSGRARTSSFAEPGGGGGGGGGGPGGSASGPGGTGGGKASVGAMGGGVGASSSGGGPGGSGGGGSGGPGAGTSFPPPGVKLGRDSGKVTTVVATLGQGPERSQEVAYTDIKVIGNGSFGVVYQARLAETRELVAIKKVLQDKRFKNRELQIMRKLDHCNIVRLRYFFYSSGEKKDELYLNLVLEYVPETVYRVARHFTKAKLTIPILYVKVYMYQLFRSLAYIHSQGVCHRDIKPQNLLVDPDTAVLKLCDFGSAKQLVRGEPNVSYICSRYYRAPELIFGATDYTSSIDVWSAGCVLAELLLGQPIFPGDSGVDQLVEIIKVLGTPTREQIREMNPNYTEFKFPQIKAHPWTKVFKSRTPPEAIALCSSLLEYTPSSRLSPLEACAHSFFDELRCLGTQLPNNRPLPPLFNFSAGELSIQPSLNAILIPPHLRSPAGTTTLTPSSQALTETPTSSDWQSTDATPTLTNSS

[3] = biological target: T2, Activin receptor type-1B (Homo sapiens) (UniProt P36896); assay: Selectivity interaction (KinomeScan (DiscoverX)) EUB0000607a ACVR1B; details: at 10 µM
T2 sequence (whole entry): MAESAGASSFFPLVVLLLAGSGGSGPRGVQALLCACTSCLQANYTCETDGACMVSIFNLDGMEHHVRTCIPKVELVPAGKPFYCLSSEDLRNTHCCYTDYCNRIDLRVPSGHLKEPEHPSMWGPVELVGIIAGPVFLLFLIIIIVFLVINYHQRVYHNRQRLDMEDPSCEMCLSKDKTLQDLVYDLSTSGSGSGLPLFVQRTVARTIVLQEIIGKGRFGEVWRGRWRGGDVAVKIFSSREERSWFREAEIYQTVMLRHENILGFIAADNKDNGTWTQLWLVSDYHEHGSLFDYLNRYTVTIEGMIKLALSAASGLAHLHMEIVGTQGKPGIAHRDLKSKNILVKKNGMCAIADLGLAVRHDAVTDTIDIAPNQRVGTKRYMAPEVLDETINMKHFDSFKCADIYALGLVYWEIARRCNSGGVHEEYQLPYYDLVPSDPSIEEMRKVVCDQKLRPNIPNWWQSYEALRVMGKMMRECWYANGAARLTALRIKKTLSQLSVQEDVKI

[4] = biological target: Dual specificity tyrosine-phosphorylation-regulated kinase 1B (Homo sapiens, UniProt Q9Y463); details: at 10 µM
Chain of Dual specificity tyrosine-phosphorylation-regulated kinase 1B (Q9Y463 whole entry, looked up): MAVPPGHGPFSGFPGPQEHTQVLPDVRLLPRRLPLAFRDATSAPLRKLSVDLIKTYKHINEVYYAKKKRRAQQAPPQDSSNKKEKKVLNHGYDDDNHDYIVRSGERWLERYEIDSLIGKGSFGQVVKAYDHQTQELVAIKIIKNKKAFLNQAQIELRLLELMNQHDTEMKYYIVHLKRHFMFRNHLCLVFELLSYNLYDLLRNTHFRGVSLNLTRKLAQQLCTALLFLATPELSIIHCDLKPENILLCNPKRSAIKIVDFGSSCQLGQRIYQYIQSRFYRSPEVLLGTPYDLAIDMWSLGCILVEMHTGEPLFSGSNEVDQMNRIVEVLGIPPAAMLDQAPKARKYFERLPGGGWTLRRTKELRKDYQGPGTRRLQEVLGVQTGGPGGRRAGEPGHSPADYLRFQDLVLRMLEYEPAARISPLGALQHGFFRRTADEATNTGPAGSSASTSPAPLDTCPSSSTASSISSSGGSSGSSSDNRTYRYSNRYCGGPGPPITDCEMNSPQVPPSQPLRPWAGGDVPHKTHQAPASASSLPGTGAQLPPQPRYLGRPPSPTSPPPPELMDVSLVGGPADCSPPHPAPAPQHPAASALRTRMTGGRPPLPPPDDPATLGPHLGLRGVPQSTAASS

[5] = biological target: Death-associated protein kinase 3 (Homo sapiens) (UniProt O43293); assay: Selectivity interaction (KinomeScan (DiscoverX)) EUB0001049a DAPK3; details: at 1 µM
Chain of Death-associated protein kinase 3 (Homo sapiens) (O43293 whole entry, looked up): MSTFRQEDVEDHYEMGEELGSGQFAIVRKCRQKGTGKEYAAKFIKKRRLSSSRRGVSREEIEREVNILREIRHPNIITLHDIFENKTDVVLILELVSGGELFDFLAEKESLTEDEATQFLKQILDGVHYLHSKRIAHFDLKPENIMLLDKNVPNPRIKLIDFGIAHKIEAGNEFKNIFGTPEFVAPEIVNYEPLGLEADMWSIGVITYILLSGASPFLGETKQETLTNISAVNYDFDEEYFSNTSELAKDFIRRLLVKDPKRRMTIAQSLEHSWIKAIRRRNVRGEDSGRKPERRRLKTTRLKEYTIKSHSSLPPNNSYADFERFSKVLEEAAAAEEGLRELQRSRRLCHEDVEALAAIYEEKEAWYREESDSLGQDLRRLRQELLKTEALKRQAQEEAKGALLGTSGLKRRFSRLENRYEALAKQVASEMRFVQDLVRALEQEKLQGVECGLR

[6] = biological target: T3, Cyclin-dependent kinase-like 2 (Homo sapiens) (UniProt Q92772); assay: Selectivity interaction (KinomeScan (DiscoverX)) EUB0001049a CDKL2; details: at 1 µM
T3 sequence (whole entry): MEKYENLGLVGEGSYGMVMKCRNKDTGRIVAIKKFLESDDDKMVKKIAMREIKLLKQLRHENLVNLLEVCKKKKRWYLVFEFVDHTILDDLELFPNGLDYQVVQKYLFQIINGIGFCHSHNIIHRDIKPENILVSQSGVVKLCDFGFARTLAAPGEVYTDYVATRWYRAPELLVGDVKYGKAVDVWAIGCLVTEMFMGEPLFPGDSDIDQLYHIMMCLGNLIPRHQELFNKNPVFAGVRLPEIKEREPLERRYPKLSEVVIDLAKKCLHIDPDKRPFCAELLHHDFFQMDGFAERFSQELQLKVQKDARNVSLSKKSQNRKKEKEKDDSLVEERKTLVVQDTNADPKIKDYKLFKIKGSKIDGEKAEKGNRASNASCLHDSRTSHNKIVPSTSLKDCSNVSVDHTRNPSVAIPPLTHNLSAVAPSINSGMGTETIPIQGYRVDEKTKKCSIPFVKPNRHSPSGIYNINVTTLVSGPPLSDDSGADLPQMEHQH

[7] = biological target: Mitogen-activated protein kinase kinase kinase 9 (Homo sapiens) (UniProt P80192); assay: Selectivity interaction (KinomeScan (DiscoverX)) EUB0001049a MAP3K9; details: at 1 µM
Chain of Mitogen-activated protein kinase kinase kinase 9 (Homo sapiens) (P80192 whole entry, looked up): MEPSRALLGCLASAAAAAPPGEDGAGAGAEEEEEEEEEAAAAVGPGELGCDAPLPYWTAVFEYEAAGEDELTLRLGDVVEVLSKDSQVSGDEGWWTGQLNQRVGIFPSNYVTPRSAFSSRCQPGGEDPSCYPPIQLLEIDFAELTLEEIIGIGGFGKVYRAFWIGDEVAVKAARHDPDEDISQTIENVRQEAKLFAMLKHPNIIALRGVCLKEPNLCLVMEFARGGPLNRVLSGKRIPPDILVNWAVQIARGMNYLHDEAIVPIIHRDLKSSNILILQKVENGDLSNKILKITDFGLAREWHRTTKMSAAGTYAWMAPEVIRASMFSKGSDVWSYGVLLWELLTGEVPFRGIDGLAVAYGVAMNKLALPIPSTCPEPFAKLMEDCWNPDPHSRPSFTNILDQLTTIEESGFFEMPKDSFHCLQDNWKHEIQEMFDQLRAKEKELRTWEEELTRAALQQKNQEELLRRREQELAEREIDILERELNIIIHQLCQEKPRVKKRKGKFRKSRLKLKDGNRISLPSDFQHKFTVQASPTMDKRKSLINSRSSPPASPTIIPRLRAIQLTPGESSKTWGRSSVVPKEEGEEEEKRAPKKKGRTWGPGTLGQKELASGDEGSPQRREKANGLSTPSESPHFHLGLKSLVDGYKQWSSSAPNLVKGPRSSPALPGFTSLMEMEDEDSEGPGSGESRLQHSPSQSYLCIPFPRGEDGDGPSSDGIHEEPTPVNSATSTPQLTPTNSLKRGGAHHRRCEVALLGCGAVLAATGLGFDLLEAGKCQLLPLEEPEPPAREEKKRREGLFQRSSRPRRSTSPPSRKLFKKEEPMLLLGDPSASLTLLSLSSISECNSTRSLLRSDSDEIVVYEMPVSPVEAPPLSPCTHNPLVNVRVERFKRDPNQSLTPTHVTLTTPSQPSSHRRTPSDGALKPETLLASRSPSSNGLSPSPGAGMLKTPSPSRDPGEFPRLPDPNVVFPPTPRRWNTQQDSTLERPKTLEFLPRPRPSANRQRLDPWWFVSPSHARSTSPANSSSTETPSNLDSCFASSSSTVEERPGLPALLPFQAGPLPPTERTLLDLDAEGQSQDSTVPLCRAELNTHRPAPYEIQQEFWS

[8] = biological target: Kappa-type opioid receptor (Homo sapiens, UniProt P41145); assay: Selectivity interaction (Panel of kinases, GPCRs, ion channels and transporters (enzymatic assay)) EUB0000223bCl OPRK1
Chain of Kappa-type opioid receptor (P41145 whole entry): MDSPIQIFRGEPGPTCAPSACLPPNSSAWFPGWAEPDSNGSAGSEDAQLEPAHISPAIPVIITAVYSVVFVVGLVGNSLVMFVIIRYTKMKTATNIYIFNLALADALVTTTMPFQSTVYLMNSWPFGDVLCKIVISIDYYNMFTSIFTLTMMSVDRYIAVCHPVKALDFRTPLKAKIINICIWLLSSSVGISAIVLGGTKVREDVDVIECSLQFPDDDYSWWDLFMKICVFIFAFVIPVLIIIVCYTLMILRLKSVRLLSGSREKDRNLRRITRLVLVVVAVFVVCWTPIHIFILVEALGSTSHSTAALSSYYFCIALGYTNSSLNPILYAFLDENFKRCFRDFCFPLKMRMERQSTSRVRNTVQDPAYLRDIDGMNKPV

[9] = biological target: Serine/threonine-protein kinase pim-3 (Homo sapiens) (UniProt Q86V86); assay: Selectivity interaction (KinomeScan (DiscoverX)) EUB0000655a PIM3; details: at 10 µM
[10] = biological target: T4, Cytoplasmic tyrosine-protein kinase BMX (Homo sapiens) (UniProt P51813); assay: Selectivity interaction (KinomeScan (DiscoverX)) EUB0000045b BMX
T4 sequence (whole entry): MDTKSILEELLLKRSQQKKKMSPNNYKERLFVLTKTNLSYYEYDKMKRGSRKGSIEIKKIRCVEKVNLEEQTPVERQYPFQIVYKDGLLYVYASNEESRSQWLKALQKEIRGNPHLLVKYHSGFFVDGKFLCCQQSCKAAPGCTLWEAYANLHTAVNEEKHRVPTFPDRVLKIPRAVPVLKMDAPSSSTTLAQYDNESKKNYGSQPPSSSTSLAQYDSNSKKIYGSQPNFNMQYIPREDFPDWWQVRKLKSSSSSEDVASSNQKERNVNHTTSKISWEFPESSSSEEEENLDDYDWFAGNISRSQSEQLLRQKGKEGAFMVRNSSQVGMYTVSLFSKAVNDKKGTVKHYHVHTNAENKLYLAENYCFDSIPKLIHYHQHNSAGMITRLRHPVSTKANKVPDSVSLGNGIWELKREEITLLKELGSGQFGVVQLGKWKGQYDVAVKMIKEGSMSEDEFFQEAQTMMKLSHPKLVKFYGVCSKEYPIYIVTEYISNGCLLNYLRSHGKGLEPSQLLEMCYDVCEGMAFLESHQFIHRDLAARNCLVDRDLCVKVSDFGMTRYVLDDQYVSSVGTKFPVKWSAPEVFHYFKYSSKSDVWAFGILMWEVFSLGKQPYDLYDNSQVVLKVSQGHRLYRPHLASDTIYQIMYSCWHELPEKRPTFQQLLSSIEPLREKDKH

[11] = biological target: T1, Mitogen-activated protein kinase 8; assay: Selectivity interaction (KinomeScan (DiscoverX)) EUB0000092b MAPK8; details: at 10 µM
[12] = biological target: Mitogen-activated protein kinase kinase kinase 1 (Homo sapiens, UniProt Q13233); assay: Selectivity interaction (KinomeScan (DiscoverX)) EUB0000618a MAP3K1; details: at 10 µM
Chain of Mitogen-activated protein kinase kinase kinase 1 (Q13233 whole entry): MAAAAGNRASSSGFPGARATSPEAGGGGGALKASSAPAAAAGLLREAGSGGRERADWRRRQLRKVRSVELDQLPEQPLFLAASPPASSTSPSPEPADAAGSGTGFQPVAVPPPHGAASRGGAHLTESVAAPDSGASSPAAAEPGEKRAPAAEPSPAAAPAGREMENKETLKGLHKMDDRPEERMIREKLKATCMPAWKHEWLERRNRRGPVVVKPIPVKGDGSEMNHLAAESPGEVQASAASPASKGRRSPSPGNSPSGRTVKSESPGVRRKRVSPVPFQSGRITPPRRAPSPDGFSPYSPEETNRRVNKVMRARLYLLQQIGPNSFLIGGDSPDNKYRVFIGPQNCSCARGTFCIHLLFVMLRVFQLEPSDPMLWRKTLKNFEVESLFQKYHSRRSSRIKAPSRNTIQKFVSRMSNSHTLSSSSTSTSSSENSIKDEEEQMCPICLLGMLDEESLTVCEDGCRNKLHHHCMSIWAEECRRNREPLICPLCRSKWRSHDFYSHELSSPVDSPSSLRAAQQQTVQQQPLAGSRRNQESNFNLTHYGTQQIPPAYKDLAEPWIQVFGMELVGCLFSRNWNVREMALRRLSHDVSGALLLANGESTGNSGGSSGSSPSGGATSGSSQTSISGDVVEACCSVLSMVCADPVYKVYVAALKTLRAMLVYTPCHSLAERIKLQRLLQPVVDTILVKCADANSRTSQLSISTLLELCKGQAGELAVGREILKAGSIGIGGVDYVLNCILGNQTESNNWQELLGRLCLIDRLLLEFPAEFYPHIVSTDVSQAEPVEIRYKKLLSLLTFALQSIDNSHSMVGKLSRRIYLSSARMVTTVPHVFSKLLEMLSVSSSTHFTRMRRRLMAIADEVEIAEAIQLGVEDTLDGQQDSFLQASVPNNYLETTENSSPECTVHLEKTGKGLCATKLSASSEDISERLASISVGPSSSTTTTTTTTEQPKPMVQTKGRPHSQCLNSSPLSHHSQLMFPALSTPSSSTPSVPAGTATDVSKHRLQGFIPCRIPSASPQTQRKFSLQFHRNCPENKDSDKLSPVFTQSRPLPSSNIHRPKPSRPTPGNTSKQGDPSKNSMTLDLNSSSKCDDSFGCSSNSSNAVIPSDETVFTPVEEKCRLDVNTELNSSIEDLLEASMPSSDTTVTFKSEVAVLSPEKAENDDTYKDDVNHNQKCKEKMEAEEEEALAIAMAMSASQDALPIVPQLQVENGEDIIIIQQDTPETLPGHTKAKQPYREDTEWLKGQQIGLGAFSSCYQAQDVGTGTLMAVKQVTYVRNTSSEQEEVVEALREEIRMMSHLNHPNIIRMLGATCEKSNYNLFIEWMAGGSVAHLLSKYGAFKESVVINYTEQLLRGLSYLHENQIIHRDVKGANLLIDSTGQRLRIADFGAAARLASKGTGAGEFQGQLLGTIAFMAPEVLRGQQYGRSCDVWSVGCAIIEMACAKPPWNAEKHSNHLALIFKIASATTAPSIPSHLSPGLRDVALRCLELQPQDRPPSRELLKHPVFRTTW

T1 sequence (P45983 whole entry): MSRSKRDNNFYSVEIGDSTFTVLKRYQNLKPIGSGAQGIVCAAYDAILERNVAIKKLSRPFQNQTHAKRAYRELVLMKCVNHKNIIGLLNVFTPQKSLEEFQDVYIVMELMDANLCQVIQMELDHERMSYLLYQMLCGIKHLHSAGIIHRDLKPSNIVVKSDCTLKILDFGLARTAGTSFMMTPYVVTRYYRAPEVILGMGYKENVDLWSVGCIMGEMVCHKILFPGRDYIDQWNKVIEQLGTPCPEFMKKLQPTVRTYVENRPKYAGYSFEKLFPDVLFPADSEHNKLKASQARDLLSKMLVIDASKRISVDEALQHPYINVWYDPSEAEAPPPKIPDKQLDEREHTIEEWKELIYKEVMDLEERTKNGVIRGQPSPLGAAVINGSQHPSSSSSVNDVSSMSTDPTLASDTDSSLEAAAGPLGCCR

% of inhibition [1]: -32.2% | % of control [2]: 82.2%
SMILES: Cn1cc(-n2cnc3c(NCc4nc5cc(Cl)c(Cl)cc5[nH]4)nc(N4CCOCC4)nc32)cn1

SMILES: CNC(=O)Nc1ccc(-c2nc(N3CC4CCC(C3)O4)c3cnn(C4CCC5(CC4)OCCO5)c3n2)cc1
% of control [3]: 100%

% of control [4]: 100%
SMILES: CCN(CC)CCCCNc1ncc2cc(-c3cc(OC)cc(OC)c3)c(NC(=O)NC(C)(C)C)nc2n1

SMILES: COc1cc(Nc2nc(C)cc(-c3cnn4nc(OC)ccc34)n2)cc(C(F)(F)F)c1
% of control [5]: 100% | % of control [6]: 100% | % of control [7]: 96%

SMILES: COc1cc(C(=O)N2CC[C@@H](O)[C@@H](N)C2)cc2nc(-c3cc4ccccc4n3CC3CC3)n(C)c12
pXC50 [8]: < 4 M

SMILES: CN(C)CCOc1ccc(-c2nc(-c3ccncc3)c(-c3ccc4c(c3)CC/C4=N\O)[nH]2)cc1
% of control [9]: 88%

SMILES: C=CC(=O)Nc1cc(-n2c(=O)ccc3cnc4ccc(-c5ccc(NS(C)(=O)=O)cc5)cc4c32)ccc1C
% of control ([10]; at 1 µM): 29% | % of control ([10]; at 10 µM): 6%

SMILES: CCC(=O)N1CCN(c2ccc(-n3c(=O)ccc4cnc5ccc(-c6cnc7ccccc7c6)cc5c43)cc2C(F)(F)F)CC1
% of control [11]: 22%

SMILES: O[C@H]1CC[C@H](Nc2ncc3nc(Nc4c(F)cc(F)cc4F)n([C@H]4CCOC4)c3n2)CC1
% of control [12]: 91%
